Reference: patent US20030017568A1, “Smooth muscle myosin phosphatase associated kinase” (priority 2001, published 2003)

Legend:
[1] = tested on: ZIP-like-kinase (SMPP-1M associated kinase, MYPT-kinase); experiment: In vitro kinase assay against the Thr697 peptide, native ZIP-like-kinase (MYPT-kinase) compared with ROK; assay type: biochemical, cow; settings: levels needed versus ROK
Procedure: Kinase and phosphatase assays. Kinase assays included 10 μL of enzyme diluted in 25 mM Hepes, pH 7.4, 1 mM DTT, and 100 μM Thr^697 peptide. Reactions were started with addition of 20 μL Mg^2+ ATP (5 mM MgCl2 and 0.1 mM ATP (5000 cpm/nmol) and carried out at 25° C. Reactions were terminated after 20 min with the addition of 100 μL of 20 mM H3PO4. Aliquots (100 μL) of the reaction mixture were spotted on to P81 paper and washed four times with 20 mM H3PO4. The P81 paper was placed into 1.5 mL Eppendorf tubes and ^32P incorporation was determined by scintillation counting. Phosphatase assays were carried out as described (Shirazi et al, J. Biol. Chem. 269:31598-31606 (1994)).
Purification of the SMPP-1M associated kinase. The SMPP-1M associated kinase was isolated from cow bladders following initial steps outlined for purification of SMPP-1M from pig bladder (Shirazi et al, J. Biol. Chem. 269:31598-31606 (1994)). Following extraction of the myofibrillar pellet, the extract was diluted with 2 volumes of buffer C (20 mM Tris, pH 7.5, 25 mM MgCl2, and 1 mM DTT with protease inhibitors), clarified by centrifugation (100,000 g, 45 min) and applied to a 5.0×10-cm column of ethylenediamine γ-linked ATP Sepharose equilibrated in buffer C. […] The purity of SMPP-1M kinase was assessed by SDS-PAGE and silver staining.

ZIP-like-kinase = ZIP-like-kinase activity and phosphorylation in treated rabbit bladder smooth muscle (immunoprecipitates); assay type: cell-based
ROK = settings: hypertensive mice; cited from earlier work
MYPT1 = MYPT1 phosphorylation in 32P-labeled intact smooth muscle (rabbit bladder); assay type: cell-based; settings: carbachol stimulation

Compound: C[C@@H](N)[C@H]1CC[C@H](C(=O)Nc2ccncc2)CC1 [Y-27632]
- Inhibition of native ZIP-like-kinase (MYPT-kinase): levels relative to those for ROK [1]: 200 fold
- Inhibition of ZIP-like-kinase activity (ZIP-like-kinase; 10 μM, carbachol and calyculin A treated bladder): significant inhibition
- Blood pressure (ROK): decreased blood pressure

Compound: COC[C@@H]([C@H](O)[C@H](O)C(=O)NCC[C@H](C)c1nc(/C=C/C[C@@H]2O[C@]3(C[C@@H](O)[C@@H]2C)O[C@H]([C@H](C[C@H](O)[C@H](C)[C@H](O)[C@H](C)/C=C(C)/C(C)=C/C=C/C(C)=C\C#N)OC)[C@H](OP(=O)(O)O)C3(C)C)co1)N(C)C [calyculin A]
- Reduction of ZIP-like-kinase activation in the absence of calyculin A (ZIP-like-kinase; carbachol-treated bladder without calyculin A): about 50%

Compound: C[N+](C)(C)CCOC(N)=O [carbachol]
- ZIP-like-kinase phosphorylation and activation (ZIP-like-kinase): phosphorylated and activated
- MYPT1 phosphorylation state (four phosphopeptides; major site Thr697) (MYPT1): increased
